For assay [1], the species on record is Mus musculus. In words: Anticarcinoma activity of Diazomethyl Ketone against Ehrlich ascites Carcinoma pharmacological screens were reported; 5/6. It is filed as functional.
For assay [2], the species on record is Mus musculus. In words: Volume of fluid collected 8 days after tumor transplantation in mice. On the set-up: unit not given beside the values. It is filed as functional.
The species named for assay [3] is Mus musculus. Briefly: Percentage inhibition as antitumor activity in carcinoma CF1 male mice. On the set-up: concentration or dose not given beside the values. It is filed as functional.
Assay [4] relates to P388. In words: Survival of the mice for average number of days; expressed as average survival days. It is filed as functional, Mus musculus.
The test system of assay [5] is P388. Briefly: T/C expresses antileukemic activity measured as tested over that of control. It counts as functional, Mus musculus.
Assay [6] in a line: Screening of Ehrlich ascites carcinoma cells in mice at 20 mg/kg/day intraperitoneally. It counts as functional, Mus musculus. The settings on record: route intraperitoneal.
The species named for assay [7] is Mus musculus. Briefly: Anticarcinoma activity of Diazomethyl Ketone against Ehrlich ascites Carcinoma pharmacological screens were reported; 6/6. It is filed as functional.
The species named for assay [8] is Mus musculus. Briefly: Anticarcinoma activity of Diazomethyl Ketone against Ehrlich ascites Carcinoma pharmacological screens were reported; 5/8. It counts as functional.
The test system of assay [9] is P388. In words: T/C expresses antileukemic activity measured as tested over that of control; T/C >/= 120 for significant activity. It counts as functional, Mus musculus.
The species named for assay [10] is Mus musculus. Briefly: Anticarcinoma activity of Diazomethyl Ketone against Ehrlich ascites Carcinoma pharmacological screens were reported; 7/8. It counts as functional.
Assay [11] deals with Mus musculus. In words: Screening of Ehrlich ascites carcinoma cells in mice at 20 mg/kg/day, intraperitoneally. The settings on record: route intraperitoneal. It is filed as functional.
The species entered for assay [12] is Mus musculus. In words: Anticarcinoma activity of Diazomethyl Ketone against Ehrlich ascites Carcinoma pharmacological screens were reported; 8/8. It counts as functional.
Assay [13] is filed under the species Mus musculus. In words: Volume of ascrit fluid collected 8 days after tumor transplantation in mice. It is filed as functional.
For assay [14], the species on record is Mus musculus. Briefly: Anticarcinoma activity of Diazomethyl Ketone against Ehrlich ascites Carcinoma pharmacological screens were reported; 12/12. It counts as functional.
Assay [15] concerns P388. In words: T/C expresses antileukemic activity measured as tested over that of control. It is filed as functional, Mus musculus.

The structures appear in SMILES notation.

`Cc1ccc(S(=O)(=O)NC(C)C(=O)C=[N+]=[N-])cc1` (stereo unspecified): the “Survival after 10 days” value in assay [1] was found to be 5. In addition, the “Volume of ascrit fluid” value in assay [2] turned out to be 1.02. Moreover, in assay [3], the Inhibition is 87.1%. Further, in assay [4], the Survival is 11.6 days. This compound showed a T/C in [5] of 120.

Consider `C=COC(=O)C(Cc1ccc(O)cc1)NS(=O)(=O)c1ccc(C)cc1` (stereo unspecified), for which the ascrit in assay [6] is 17.5. In addition, in assay [2], the “Volume of ascrit fluid” value is reported as 4.92. Also, the Inhibition in assay [3] is on record as 75%. For the same compound, the “Survival after 10 days” value in assay [7] is on record as 6.

`Cc1ccc(S(=O)(=O)NC(C(=O)C=[N+]=[N-])C(C)C)cc1` (stereo unspecified): in [6], the ascrit is 52.7. In addition, the “Volume of ascrit fluid” value in assay [2] was 0.93. Moreover, the Inhibition in assay [3] is 85.5%. Also, in [7], the “Survival after 10 days” value amounted to 6.

`Cc1ccc(S(=O)(=O)NC(Cc2ccc(O)cc2)C(=O)OCC#N)cc1` (stereo unspecified): the “Survival after 10 days” value in [1] came out at 5. The compound also gave an ascrit in [6] of 15.8. Also, the “Volume of ascrit fluid” value in [2] is 9.36. Further, in assay [3], the Inhibition was 56%.

As to `Cc1ccc(S(=O)(=O)N2CCCC2C(=O)CCl)cc1` (stereo unspecified), in assay [8], the “Survival after 10 days” value is given as 5. The same compound registered an ascrit in assay [6] of 30. Besides, the “Volume of ascrit fluid” value in assay [2] is reported as 2.7. Moreover, the Inhibition in assay [3] is 76.5%. For the same compound, in [4], the Survival was determined as 10.2 days. Further, the T/C in assay [5] was 106.

`Cc1ccc(S(=O)(=O)N[C@H](C)C(=O)CCl)cc1`: in assay [1], the “Survival after 10 days” value stood at 5. Moreover, the ascrit in assay [6] worked out at 18.9. Also, the “Volume of ascrit fluid” value in assay [2] is 0.25. In assay [3], this compound displayed an Inhibition of 98.6%. Besides, in assay [4], the Survival stood at 11 days. Besides, the T/C in [5] was found to be 114.

In turn, `N#CCOC(=O)C(Cc1ccc(O)cc1)NC(=O)OCc1ccccc1` (stereo unspecified) showed an ascrit in [6] of 19.7. Also, the “Volume of ascrit fluid” value in assay [2] came to 10.82. In addition, the Inhibition in assay [3] is 38%. For the same compound, the “Survival after 10 days” value in [7] turned out to be 6.

As to `CCC(C)C(NS(=O)(=O)c1ccc(C)cc1)C(=O)C=[N+]=[N-]` (stereo unspecified), the “Survival after 10 days” value in assay [1] was found to be 5. In [6], the ascrit is on record as 45.4. For the same compound, the “Volume of ascrit fluid” value in assay [2] worked out at 1.92. The Inhibition in assay [3] stood at 74.7%. The same compound gave a Survival in assay [4] of 12.1 days. This compound also yielded a T/C in assay [9] of 126.

In the case of `C=COC(=O)C(Cc1ccccc1)NS(=O)(=O)c1ccc(C)cc1` (stereo unspecified), the “Survival after 10 days” value in [1] stood at 5. In assay [6], this compound displayed an ascrit of 19.2. The “Volume of ascrit fluid” value in assay [2] stood at 7.74. The same compound showed an Inhibition in assay [3] of 56.8%.

As for `Cc1ccc(S(=O)(=O)NCCCCCC(=O)CCl)cc1`, the “Survival after 10 days” value in [1] is given as 5. This compound also showed an ascrit in [6] of 0.01. Moreover, the “Volume of ascrit fluid” value in [2] turned out to be 0.02. Besides, in [3], the Inhibition is listed as 99.9%. The compound further registered a Survival in [4] of 11.2 days. This compound also gave a T/C in assay [5] of 116.

For the compound `Cc1ccc(S(=O)(=O)NCC(=O)C=[N+]=[N-])cc1`, the ascrit in assay [6] stood at 56. In assay [2], the “Volume of ascrit fluid” value is listed as 0.03. Further, the Inhibition in assay [3] came to 99.5%. Also, the “Survival after 10 days” value in assay [7] is 6.

As to `Cc1ccc(S(=O)(=O)N2C(=O)CCC2C(=O)CCl)cc1` (stereo unspecified), the “Survival after 10 days” value in assay [10] came to 7. The ascrit in assay [6] worked out at 31. Also, the “Volume of ascrit fluid” value in assay [2] is 0.95. Moreover, the Inhibition in assay [3] amounted to 91.4%. In addition, the Survival in assay [4] was determined as 12.8 days. In addition, the T/C in assay [9] stood at 133.

Consider `Cc1ccc(S(=O)(=O)NCCCCCC(=O)C=[N+]=[N-])cc1`, for which the “Survival after 10 days” value in assay [1] is reported as 5. Moreover, the ascrit in assay [6] is 42.5. Further, in assay [2], the “Volume of ascrit fluid” value is recorded as 0.5. Further, the Inhibition in [3] stood at 93.8%. The same compound came in with a Survival in assay [4] of 11.8 days. The compound also returned a T/C in [5] of 122.

In turn, `N[C@@H](Cc1ccc(N(CCCl)CCCl)cc1)C(=O)O` [MELPHALAN] registered an ascrit in assay [6] of 0.1. Further, the “Volume of ascrit fluid” value in assay [2] came to 3. Moreover, the Inhibition in assay [3] was 99.9%. In [7], the “Survival after 10 days” value was 6.

`Cc1ccc(S(=O)(=O)NCC(=O)CCl)cc1`: in assay [1], the “Survival after 10 days” value worked out at 5. Also, the ascrit in assay [6] worked out at 0.01. Moreover, the “Volume of ascrit fluid” value in assay [2] was 0.04. In assay [3], this compound displayed an Inhibition of 99.9%. In addition, the Survival in assay [4] is 13.2 days. Further, the T/C in assay [9] is 137.

In [11], `Sc1ncnc2nc[nH]c12` [MERCAPTOPURINE ANHYDROUS] displayed an ascrit of 0.7. Besides, the “Volume of ascrit fluid” value in [2] was determined as 0.3. The compound further registered an Inhibition in [3] of 99.9%. In assay [7], the “Survival after 10 days” value came out at 6.

For `Cc1ccc(S(=O)(=O)NC(C)C(=O)CCl)cc1` (stereo unspecified), the “Survival after 10 days” value in assay [12] was found to be 8. Further, the ascrit in assay [6] turned out to be 46.5. Also, in assay [2], the “Volume of ascrit fluid” value is recorded as 1.6. The compound also showed an Inhibition in assay [3] of 78.4%.

In [6], `Cc1ccc(S(=O)(=O)NCCC(=O)C=[N+]=[N-])cc1` registered an ascrit of 44. Moreover, the “Volume of ascrit fluid” value in assay [2] came to 1.66. This compound also gave an Inhibition in assay [3] of 78.8%. Besides, in assay [7], the “Survival after 10 days” value was found to be 6. This compound also gave a Survival in assay [4] of 11.5 days. The same compound gave a T/C in [5] of 119.

Consider `Cc1ccc(S(=O)(=O)NC(C(=O)CCl)C(C)C)cc1` (stereo unspecified), for which, in assay [6], the ascrit turned out to be 46.9. Also, in assay [13], the “Volume of ascrit fluid” value is 0.63. The same compound returned an Inhibition in assay [3] of 91.4%. In addition, the “Survival after 10 days” value in [7] came out at 6.

For `CCC(C)C(NS(=O)(=O)c1ccc(C)cc1)C(=O)CCl` (stereo unspecified), the “Survival after 10 days” value in assay [8] came to 5. This compound came in with an ascrit in [6] of 34.5. Besides, in assay [2], the “Volume of ascrit fluid” value was 1.34. In addition, the Inhibition in assay [3] amounted to 86.6%. In addition, the Survival in [4] was found to be 10.5 days. In addition, the T/C in assay [5] turned out to be 109.

In turn, `Cc1ccc(S(=O)(=O)N2CCC[C@H]2C(=O)C=[N+]=[N-])cc1` came in with an ascrit in [6] of 39.8. The “Volume of ascrit fluid” value in assay [2] amounted to 0.63. For the same compound, the Inhibition in assay [3] came to 92.7%. The “Survival after 10 days” value in assay [7] is recorded as 6.

With `Cc1ccc(S(=O)(=O)NC(CC(C)C)C(=O)CCl)cc1` (stereo unspecified), the “Survival after 10 days” value in assay [12] was found to be 8. The same compound returned an ascrit in [6] of 25.5. For the same compound, the “Volume of ascrit fluid” value in [2] came to 2.65. The Inhibition in assay [3] was 80.4%. In assay [4], the Survival came out at 10.3 days. In assay [5], this compound displayed a T/C of 107.

In the case of `Cc1ccc(S(=O)(=O)N2C(=O)CCC2C(=O)C=[N+]=N)cc1` (stereo unspecified), the ascrit in assay [6] is recorded as 32. In [2], the “Volume of ascrit fluid” value is 0.6. For the same compound, the Inhibition in assay [3] is 94.4%. The “Survival after 10 days” value in [7] was 6.

For `Cc1ccc(S(=O)(=O)NCCC(=O)CCl)cc1`, in assay [1], the “Survival after 10 days” value was determined as 5. This compound also yielded an ascrit in assay [6] of 0.1. Moreover, the “Volume of ascrit fluid” value in assay [2] was determined as 0.02. For the same compound, in assay [3], the Inhibition was found to be 99.9%. The compound further yielded a Survival in assay [4] of 9.8 days. Further, the T/C in assay [5] is recorded as 101.

Take `Cc1ccc(S(=O)(=O)NC(CC(C)C)C(=O)C=[N+]=[N-])cc1` (stereo unspecified): the ascrit in assay [6] came out at 42.5. Further, the “Volume of ascrit fluid” value in assay [2] is reported as 0.63. Also, in assay [3], the Inhibition is 92.2%. The “Survival after 10 days” value in assay [7] came to 6. The compound also showed a Survival in assay [4] of 12.1 days. Further, the T/C in assay [9] came out at 125.

As to `O=c1[nH]cc(F)c(=O)[nH]1` [FLUOROURACIL], the ascrit in assay [6] worked out at 32.4. In addition, in assay [2], the “Volume of ascrit fluid” value is given as 0.98. In assay [3], this compound yielded an Inhibition of 0%. Further, in [14], the “Survival after 10 days” value turned out to be 12. Further, the Survival in [4] is 9.66 days. Moreover, the T/C in assay [15] turned out to be 100.

(Values after ChEMBL document CHEMBL1121402, “Antitumor agents: diazomethyl ketone and chloromethyl ketone analogues prepared from N-tosyl amino acids” (1980).)
